Experimental findings from patent US9018208B2, “Heterocycles as potassium channel modulators” (Icagen Inc., priority 2007, dated 2015) are described below.

Assay [1] has as its system SH-SY5Y M-currents (KCNQ2, KCNQ3 and KCNQ5). As to the kind of experiment: SH-SY5Y native cell line FLIPR assay (voltage-sensitive dye DiBAC). The assay is classed as cell-based, mouse neuroblastoma, rat glioma hybrid cell line. Summed up: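 Response is peak DiBAC fluorescence change, normalised to the maximum from a positive control agent, sampled every 30 s over 25 min. Before compound addition, SH-SY5Y cells differentiated with PGE1 plus isomethylbutylxanthine were dye-loaded for 1 h in EBSS with […] DiBAC.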

Assay [2] has as its system electroshock seizure, Male Wistar rats. As to the kind of experiment: In vivo rat assay for anti-convulsant activity (rat MES, electroshock seizure). The conditions noted are these: for Rat MES activity: single dose screening, oral, typically 10 mg/kg, animals protected from hind limb extension. Here is the method: Male Wistar rats were housed 4 per cage on a regular light/dark cycle (lights on 0600-1800) for one week prior to anti-convulsant testing. The apparatus used to induce electroshock seizure was obtained from Walhquist Instrument Co., Salt Lake City, Utah. The shock level was set at 150 mA and the duration at 0.2 seconds. A drop of 1% proparacaine solution was placed in each eye of a rat, the electrodes were placed over the eyes, and the shock was administered. Latency to hind limb extension was measured to the nearest 0.1 second.
The KCNQ opener was homogenized in either 0.5% carboxymethylcellulose in water or 0.5% methylcellulose in water) and administered orally through a steel 18-gauge rat gavage tube in a volume of 2 mL/kg of body weight. In the single dose screening assay, latency to seizure for the vehicle group and the KCNQ opener group were compared using t-test. Typically a dose of 10 mg/kg of the opener is used. However, openers can be run n a dose-response experiment where doses of 1, 3, 10 and 30 mg/Kg are used.
In the single dose screening assay, latency to seizure for the vehicle and the 10 mg/kg groups were compared using t-test. Latencies to seizure in the dose response studies were submitted to analysis of variance and all dose groups were compared to vehicle using Dunnett's method (JMP© ver 5.1, SAS). In all cases an effect was considered significant if p≦0.05.

Setting [3] is: FLIPR assay, SH-SY5Y native cell line, Table 1, read-out: SH-SY5Y EC50.
Where [4] appears, read: SH-SY5Y native cell line, FLIPR assay (Table 3), read-out: SH-SY5Y EC50.
The mark [5] stands for this setting: FLIPR assay, SH-SY5Y native cell line, Table 4, read-out: SH-SY5Y EC50.
Setting [6] is: FLIPR assay, SH-SY5Y native cell line, Table 5, read-out: SH-SY5Y EC50.
[7] abbreviates: SH-SY5Y native cell line, FLIPR assay (Table 6), read-out: SH-SY5Y EC50.
Where [8] appears, read: FLIPR assay, SH-SY5Y native cell line, Table 2, read-out: SH-SY5Y EC50.

Like-named read-outs stand apart in the source and are kept apart here. Where only a bound is given, the exact number is not on record here.

For the compound `CC(C)(C)Cc1c(NC(=O)Cc2ccccc2)nc2ccc(C(F)(F)F)cn12` [Compound 20, N-(3-neopentyl-6-(trifluoromethyl)imidazo[1,2-a]pyridin-2-yl)-2-phenylacetamide], the EC50 in assay [1] (setting [3]) was less than 500 nM. Further, the “Rat MES activity” value in assay [2] was “+ (+ 2-3 animals protected)”.
For `CC(CC(=O)Nc1nc2ccc(C(F)(F)F)cn2c1CC(C)(C)C)C(F)(F)F` (stereo not drawn) [Compound 23, 4,4,4-trifluoro-3-methyl-N-(3-neopentyl-6-(trifluoromethyl)imidazoyl)butanamide] the same measures were less than 500 nM and “+ (+ 2-3 animals protected)”.
For `CC(C)(C)CCC(=O)Nc1nc2ccc(C(F)(F)F)cn2c1CC(C)(C)C` [Compound 24, 4,4-dimethyl-N-(3-neopentyl-6-(trifluoromethyl)imidazo[1,2-a]pyridin-2-yl)pentanamide] the same measures were less than 500 nM and “+ (+ 2-3 animals protected)”.
For `CC(C)(C)CC(=O)Nc1nc2ccc(C(F)(F)F)cn2c1CC1CCCCC1` [Compound 32, N-(3-(cyclohexylmethyl)-6-(trifluoromethyl)imidazo[1,2-a]pyridin-2-yl)-3,3-dimethylbutanamide] the same measures were less than 500 nM and “+ (+ 2-3 animals protected)”.
For `O=C(Cc1ccccc1)Nc1nc2ccc(C(F)(F)F)cn2c1C1CCCCC1` [Compound 38, N-(3-cyclohexyl-6-(trifluoromethyl)imidazo[1,2-a]pyridin-2-yl)-2-phenylacetamide], the EC50 in assay [1] (setting [3]) is less than 500 nM. Besides, the “Rat MES activity” value in assay [2] was “++ (++ 4-6 animals protected)”.
For `CC(C)(C)Cc1c(NC(=O)C2CCCC2)nc2ccc(C(F)(F)F)cn12` [Compound 51, N-(3-neopentyl-6-(trifluoromethyl)imidazo[1,2-a]pyridin-2-yl)cyclopentanecarboxamide] the same measures were less than 500 nM and “++ (++ 4-6 animals protected)”.
With `Cc1ccc2nc(NC(=O)CC(C)C(F)(F)F)c(CC(C)(C)C)n2n1` (stereo not drawn) [Compound 68, 4,4,4-trifluoro-3-methyl-N-(6-methyl-3-neopentylimidazo[1,2-b]pyridazin-2-yl)butanamide], the EC50 in assay [1] (setting [3]) was less than 500 nM. The “Rat MES activity” value in assay [2] is reported as “+++ (+++ 7-8 animals protected)”.
Take `C[C@H](CC(=O)Nc1nc2ccc(C(F)(F)F)cn2c1C1CC1)C(F)(F)F` [Compound 89, (R)—N-(3-cyclopropyl-6-(trifluoromethyl)imidazo[1,2-a]pyridin-2-yl)-4,4,4-trifluoro-3-methylbutanamide]: the EC50 in assay [1] (setting [3]) was in the range of 500 to 3000 nM. In assay [2] (Rattus norvegicus, po, rat MES dose-response), this compound came in with an ED50 of 5.8 mg/kg. Moreover, the “Rat MES activity” value in assay [2] is recorded as “+++ (+++ 7-8 animals protected)”.
As to `O=C(Nc1nc2ccccn2c1-c1cc(C(F)(F)F)ccn1)C1CC1(F)F` (stereo not drawn) [Compound 413, 2,2-difluoro-N-(3-(4-(trifluoromethyl)pyridin-2-yl)imidazo[1,2-a]pyridin-2-yl)cyclopropanecarboxamide], the EC50 in assay [1] (setting [4]) fell in the range of 500 to 3000 nM.
On the same count and under the same terms, to `CC(C)(C)CC(=O)Nc1nc2ccccn2c1-c1cscn1` [Compound 414, 3,3-dimethyl-N-(3-(thiazol-4-yl)imidazo[1,2-a]pyridin-2-yl)butanamide] belongs 3000 to 10000 nM; to `COc1ccc2nc(NC(=O)CC(C)(C)C)c(-c3nccs3)n2n1` [Compound 415, N-(6-methoxy-3-(thiazol-2-yl)imidazo[1,2-b]pyridazin-2-yl)-3,3-dimethylbutanamide], 3000 to 10000 nM.
On the same count and under the same terms, to `Cc1nc(-c2c(NC(=O)CC(C)(C)C)nc3ccccn23)cs1` [Compound 416, 3,3-dimethyl-N-(3-(2-methylthiazol-4-yl)imidazo[1,2-a]pyridin-2-yl)butanamide] belongs 3000 to 10000 nM.
For `Cc1cccc2nc(NC(=O)CC(C)(C)C)c(-c3cccc(C(F)(F)F)c3)n12` [Compound 419, 3,3-dimethyl-N-(5-methyl-3-(3-(trifluoromethyl)phenyl)imidazo[1,2-a]pyridin-2-yl)butanamide], the EC50 in assay [1] (setting [5]) is less than 500 nM; in assay [1] (unit inferred, read-out: SH-SY5Y_EC50) it was 340 nM.
As for `Cc1cccc2nc(NC(=O)CC(C)C(F)(F)F)c(-c3cccc(C(F)(F)F)c3)n12` (stereo not drawn) [Compound 420, 4,4,4-trifluoro-3-methyl-N-(5-methyl-3-(3-(trifluoromethyl)phenyl)imidazo[1,2-a]pyridin-2-yl)butanamide], in assay [1] (setting [5]), the EC50 was in the range of 500 to 3000 nM.
In the case of `Cc1c(NC(=O)C(F)(F)F)nc2ccc(F)cn12` [Compound 421, 2,2,2-trifluoro-N-(6-fluoro-3-methylimidazo[1,2-a]pyridin-2-yl)acetamide], the EC50 in assay [1] (setting [6]) was in the range of 3000 to 10000 nM.
On the same count and under the same terms, as for `Cc1c(NC(=O)Cc2ccc(F)cc2)nc2ccc(F)cn12` [Compound 422, N-(6-fluoro-3-methylimidazo[1,2-a]pyridin-2-yl)-2-(4-fluorophenyl)acetamide], the figure is 3000 to 10000 nM; as for `Cc1c(NC(=O)CC(C)(C)C)nc2ccc(F)cn12` [Compound 423, N-(6-fluoro-3-methylimidazo[1,2-a]pyridin-2-yl)-3,3-dimethylbutanamide], 3000 to 10000 nM.
On to `Cc1c(NC(=O)CC(F)(F)F)nc2ccc(F)cn12` [Compound 424, 3,3,3-trifluoro-N-(6-fluoro-3-methylimidazo[1,2-a]pyridin-2-yl)propanamide], for which the EC50 in assay [1] (setting [6]) was 3000 to 10000 nM; in assay [1] (read-out: SH-SY5Y_EC50), 10000 nM.
Consider `C=Cc1c(NC(=O)Cc2ccc(F)cc2)nc2ccc(F)cn12` [Compound 425, N-(6-fluoro-3-vinylimidazo[1,2-a]pyridin-2-yl)-2-(4-fluorophenyl)acetamide], for which the EC50 in assay [1] (setting [6]) lay within 500 to 3000 nM.
The same measure, in the same setting: to `C=Cc1c(NC(=O)Cc2ccc(F)cc2)nc2cc(C(F)(F)F)ccn12` [Compound 426, 2-(4-fluorophenyl)-N-(7-(trifluoromethyl)-3-vinylimidazo[1,2-a]pyridin-2-yl)acetamide] belongs 500 to 3000 nM; to `C=Cc1c(NC(=O)CC(F)(F)F)nc2cc(C(F)(F)F)ccn12` [Compound 427, 3,3,3-trifluoro-N-(7-(trifluoromethyl)-3-vinylimidazo[1,2-a]pyridin-2-yl)propanamide], 3000 to 10000 nM.
Take `CC(C)(CC(=O)Nc1nc2ccc(C(F)(F)F)cn2c1C1CC1)C(F)(F)F` [Compound 432, N-(3-cyclopropyl-6-(trifluoromethyl)imidazo[1,2-a]pyridin-2-yl)-4,4,4-trifluoro-3,3-dimethylbutanamide]: the EC50 in assay [1] (setting [7]) is less than 500 nM.
For the compound `CC(C)(C)Cc1c(NC(=O)CC(C)(C)C(F)(F)F)nc2ccc(C(F)(F)F)cn12` [Compound 440, 4,4,4-trifluoro-3,3-dimethyl-N-(3-neopentyl-6-(trifluoromethyl)imidazo[1,2-a]pyridin-2-yl)butanamide], the EC50 in assay [1] (setting [7]) was less than 500 nM.
Still for that read-out and setting: to `CC(C)(CC(=O)Nc1nc2ccc(C(F)(F)F)cn2c1C1CCCCC1)C(F)(F)F` [Compound 441, N-(3-cyclohexyl-6-(trifluoromethyl)imidazo[1,2-a]pyridin-2-yl)-4,4,4-trifluoro-3,3-dimethylbutanamide] belongs less than 500 nM; to `CC(C)(CC(=O)Nc1nc2ccc(C(F)(F)F)cn2c1C1CCCC1)C(F)(F)F` [Compound 442, N-(3-cyclopentyl-6-(trifluoromethyl)imidazo[1,2-a]pyridin-2-yl)-4,4,4-trifluoro-3,3-dimethylbutanamide], less than 500 nM; to `CC(C)CCc1c(NC(=O)CC(C)(C)C(F)(F)F)nc2ccc(C(F)(F)F)cn12` [Compound 443, 4,4,4-trifluoro-N-(3-isopentyl-6-(trifluoromethyl)imidazo[1,2-a]pyridin-2-yl)-3,3-dimethylbutanamide], less than 500 nM.
The same measure, in the same setting: as for `CC(C)(CC(=O)Nc1nc2ccc(F)cn2c1CC1CCCCC1)C(F)(F)F` [Compound 444, N-(3-(cyclohexylmethyl)-6-fluoroimidazo[1,2-a]pyridin-2-yl)-4,4,4-trifluoro-3,3-dimethylbutanamide], the figure is less than 500 nM; as for `CC1(CC(=O)Nc2nc3ccc(C(F)(F)F)nn3c2C2CC2)CCCC1` [Compound 445, N-(3-cyclopropyl-6-(trifluoromethyl)imidazo[1,2-b]pyridazin-2-yl)-2-(1-methylcyclopentyl)acetamide], less than 500 nM; as for `O=C(Nc1nc2ccc(C(F)(F)F)nn2c1C1CCCC1)c1ccc(F)c(F)c1` [Compound 447, N-(3-cyclopentyl-6-(trifluoromethyl)imidazo[1,2-b]pyridazin-2-yl)-3,4,-difluorobenzamide], 500 to 3000 nM.
In the case of “N-(6-fluoro-3-(3-(trifluoromethoxy)phenyl)imidazo yl)cycloheptanecarboxamide [Compound 293]”, in assay [1] (setting [8]), the EC50 was less than 500 nM.
Still for that read-out and setting: to “N-(6-fluoro-3-(3-(trifluoromethyl)phenyl)imidazo yl)cycloheptanecarboxamide [Compound 294]” belongs less than 500 nM.

As usually defined, the ED50 is the dose that gives a 50% effect, or the effect in half of the subjects. Low readings indicate greater potency, high ones weaker potency.
